23 compounds from patent US5869460A, “Sulfated and phosphated saccharide derivatives, process for the preparation of the same and use thereof” (Sanwa Kaguku Kenkyusho Co., Ltd., priority 1995, dated 1999) can be followed below.

In assay [1] the test system is lung damage model induced by cobra venom factor (CVF); bleeding. As to the kind of experiment: Anti-inflammatory action to lung damage model induced by CVF: index of bleeding (hemoglobin absorbance, 541 nm, in lung homogenate supernatant). The format is in vivo, Lewis rats. The following applies: Rattus norvegicus, iv, 0.5 h, read-out: Inhibition rate (%), index of bleeding. How it is done:
(§1) Anti-inflammatory action to lung damage model induced by CVF Compounds obtained by Examples and an exemplary known compound (sulfatide) were selected as Test Compounds to check an inflammatory action thereof to a lung damage model induced by cobra venom factor (CVF), in accordance with the method described by M. S. Mulligan et al ["J. IMMUNOL.", Vol.151, page 6410 (1993); and "INT. IMMUNOL.", Vol. 7, page 1107 (1995)].
(§2) Namely, the test compound was intravenously injected by an amount of 0.2 mg/rat to test animals (Lewis rats, age of 8 weeks, 5 animals in each group). After lapsed 5 minutes from administration, CVF (20U/2 ml/kg) was administered in a tail vein, and after 30 minutes, a laparotomy was carried out under nembutal anesthesia to perfuse the lung with phosphate-buffered saline (PBS, pH7.4) by injecting the same from right ventricle and to exenterate the lung. The extracted lung was homogenized with phosphate buffer (pH 7.4), centrifuged to collect a supernatant, and determined absorbance which was admitted as index of bleeding (It measures an amount of hemoglobin and thus detection wave-length was set to 541 nm).
(§3) Each inhibition rate (%) was calculated by
(§4) 100×[1-(value of test compound-value of negative control)/(value of positive control-value of negative control)].

The test system of assay [2] is lung damage model induced by cobra venom factor (CVF); infiltration in neutrocyte (myeloperoxidase). Nature of the assay: Anti-inflammatory action to lung damage model induced by CVF: myeloperoxidase activity as index of infiltration in neutrocyte. The class given is in vivo, Lewis rats. The following applies: Rattus norvegicus, iv, 0.5 h, read-out: Inhibition rate (%), myeloperoxidase activity as index of infiltration in neutrocyte. How it is done:
as §1, §2
On the other hand, the precipitation obtained by centrifugation was sonicated in the presence of cetrimide and centrifuged to obtain a supernatant, an activity myeloperoxidase therein being measured as an index of infiltration in neutrocyte.
as §3, §4

Each structure is given as a SMILES string.

Take `CC(C)CO[C@@H]1O[C@H](COS(=O)(=O)O)[C@H](OS(=O)(=O)O)[C@H](OS(=O)(=O)O)[C@H]1OS(=O)(=O)O` [Example 3-2, tetrasodium 2-methylpropyl β-D-galactopyranoside 2,3,4,6-tetrasulfate]: the inhibition in vivo at 0.2 mg in assay [1] is 49%; in assay [2], 24%.
For `CCCC(CCC)CO[C@@H]1O[C@H](COS(=O)(=O)O)[C@H](O)[C@H](OS(=O)(=O)O)[C@H]1O[C@@H]1O[C@@H](C)[C@@H](O)[C@@H](O)[C@@H]1O` [Example 25, Disodium 2-propylpentyl O-α-L-fucopyranosyl-(1→2)-β-D-galactonyranoside 3,6-disulfate] the same measures were 56% and 50%.
The like results for `CC(C)CO[C@@H]1O[C@H](COP(=O)(O)O)[C@H](OP(=O)(O)O)[C@H](OP(=O)(O)O)[C@H]1OP(=O)(O)O` [Example 12, Octasodium 2-methylpropyl β-D-galactopyranoside 2,3,4,6-tetranhosphate] were, in that order, 0% and 30%.
In the case of `CCCC(CCC)CO[C@@H]1O[C@H](CO)[C@H](O)[C@H](OS(=O)(=O)O)[C@H]1O` [Example 4, Sodium 2-pronylpentyl β-D-galactopyranoside 3-sulfate], the inhibition in vivo at 0.2 mg in assay [1] is 39%; in assay [2] it was 58%.
The like results for `CCCC(CCC)CO[C@@H]1O[C@H](CO)[C@@H](O[C@@H]2O[C@H](CO)[C@H](O)[C@H](OS(=O)(=O)O)[C@H]2O)[C@H](O)[C@H]1O` [Example 10-1, Sodium 2-propylpentyl O-β-D-galactopyranosyl-(1→4)-β-D-glucopyranoside 3'-sulfate] were, in that order, 65% and 66%.
Consider `CCCC(CCC)CO[C@@H]1O[C@H](COS(=O)(=O)O)[C@H](O)[C@H](O)[C@H]1O` [Example 5, Sodium 2-propylpentyl β-D-galactopyranoside 6-sulfate], for which the inhibition in vivo at 0.2 mg in assay [1] came out at 52%; in assay [2], 47%.
The like results for `CCCC(CCC)CO[C@@H]1O[C@H](CO)[C@@H](OP(=O)(O)O)[C@H](OP(=O)(O)O)[C@H]1OP(=O)(O)O` [Example 20, Hexasodium 2-propylpentyl δ-D-glucopyranoside 2,3,4-triphosphate] were, in that order, 45% and 40%.
For `CCCCCCCCCCCCCCC(CCCCCCCCCCCCCC)CO[C@@H]1O[C@H](CO)[C@@H](O[C@@H]2O[C@H](CO)[C@H](OP(=O)(O)O)[C@H](OP(=O)(O)O)[C@H]2O)[C@H](O)[C@H]1O` [Example 22, Tetrasodium 2-tetradecylhexadecyl O-β-D-galactopyranosyl-(1→4)-β-D-glucopyranoside 3',4'-diphosphate] the same measures were 65% and 58%.
For `CCCCCCCCCCCCCCC(CCCCCCCCCCCCCC)CO[C@@H]1O[C@H](CO)[C@H](O)[C@H](OS(=O)(=O)O)[C@H]1O[C@@H]1O[C@@H](C)[C@@H](O)[C@@H](OS(=O)(=O)O)[C@@H]1O` [Example 28-1, disodium 2-tetradecylhexadecyl O-α-L-fucopyranosyl-(1→2)-β-D-galactopyranoside 3,3'-disulfate] the same measures were 63% and 60%.
In the case of `CCCCCCCCCCCCCCC(CCCCCCCCCCCCCC)CO[C@@H]1O[C@H](CO)[C@H](O)[C@H](OP(=O)(O)O)[C@H]1O[C@@H]1O[C@@H](C)[C@@H](O)[C@@H](O)[C@@H]1O` [Example 27-2, disodium 2-tetradecylhexadecyl O-α-L-fucopyranosyl-(1→2)-β-D-galactopyranoside 3-phosphate], the results for the inhibition in vivo at 0.2 mg in assay [1] and in assay [2] were 62% and 58%, respectively.
The like results for `CCCCCCCCCCCCCCC(CCCCCCCCCCCCCC)CO[C@@H]1O[C@H](COP(=O)(O)O)[C@H](OP(=O)(O)O)[C@H](OP(=O)(O)O)[C@H]1OP(=O)(O)O` [Example 14, Octasodium 2-tetradecylhexadecyl β-D-galactopyranoside2,3,4,6-tetraphosphate] were, in that order, 55% and 41%.
On to `CCCC(CCC)CO[C@@H]1O[C@H](COS(=O)(=O)O)[C@H](O)[C@H](OS(=O)(=O)O)[C@H]1OS(=O)(=O)O` [Example 7-1, Trisodium 2-propylpentyl β-D-galactopyranoside 2,3,6-trisulfate], for which the results for the inhibition in vivo at 0.2 mg in assay [1] and in assay [2] were 36% and 26%, respectively.
The like results for `CCCCCCCCCCCCCCCCCCCCCCC(CCCCCCCCCCCCCCCC)CO[C@@H]1O[C@H](CO)[C@H](O)[C@H](OS(=O)(=O)O)[C@H]1O` (stereo partly drawn) [Example 8, Sodium 2-hexadecyltetracosyl β-D-galactopyranoside 3-sulfate] were, in that order, 53% and 51%.
For `CCCC(CCC)CO[C@@H]1O[C@H](COS(=O)(=O)O)[C@H](OS(=O)(=O)O)[C@H](OS(=O)(=O)O)[C@H]1OS(=O)(=O)O` [Example 7-2, tetrasodium 2-propylpentyl β-D-galactopyranoside 2,3,4,6-tetrasulfate] the same measures were 42% and 42%.
For `CC(C)CO[C@@H]1O[C@H](COS(=O)(=O)O)[C@H](O)[C@H](OS(=O)(=O)O)[C@H]1O` [Example 1-2, disodium 2-methylpropyl β-D-galactopyranoside 3,6-disulfate] the same measures were 16% and 22%.
Consider `CCCC(CCC)CO[C@@H]1O[C@H](COS(=O)(=O)O)[C@H](O)[C@H](OS(=O)(=O)O)[C@H]1O[C@@H]1O[C@@H](C)[C@@H](O)[C@@H](OS(=O)(=O)O)[C@@H]1O` [Example 26, Trisodium 2-propylpentyl O-α-L-fucopyranosyl-(1→2)-β-D-galactopyranoside 3,3',6-trisulfate], for which the figures for the inhibition in vivo at 0.2 mg in assay [1] and in assay [2] were 56% and 50%, respectively.
The like results for `CC(C)CO[C@@H]1O[C@H](CO)[C@H](OP(=O)(O)O)[C@H](OP(=O)(O)O)[C@H]1O` [Example 15, Tetrasodium 2-methylpropyl β-D-galactopyranoside 3,4-diphosphate] were, in that order, 45% and 44%.
The like results for `CCCC(CCC)CO[C@@H]1O[C@H](CO)[C@@H](O[C@@H]2O[C@H](COS(=O)(=O)O)[C@H](O)[C@H](OS(=O)(=O)O)[C@H]2O)[C@H](O)[C@H]1O` [Example 10-2, disodium 2-propylpentyl O-β-D-galactopyranosyl-(1→4)-β-D-glucopyranoside 3',6'-disulfate] were, in that order, 63% and 82%.
The like results for `CCCC(CCC)CO[C@@H]1O[C@H](COS(=O)(=O)O)[C@H](O)[C@H](OS(=O)(=O)O)[C@H]1O` [Example 6, Disodium 2-propylpentyl β-D-galactopyranoside 3,6-disulfate] were, in that order, 0% and 12%.
With `CCCCCCCCCCCCCCC(CCCCCCCCCCCCCC)CO[C@@H]1O[C@H](CO)[C@@H](O[C@@H]2O[C@H](COS(=O)(=O)O)[C@H](O)[C@H](OS(=O)(=O)O)[C@H]2O)[C@H](O)[C@H]1O` [Example 11-1, Disodium 2-tetradecylhexadecyl O-β-D-galactopyranosyl-(1→4)-β-D-glucopyranoside 3',6'-disulfate], the inhibition in vivo at 0.2 mg in assay [1] worked out at 100%; in assay [2], 82%.
For `CCCC(CCC)CO[C@@H]1O[C@H](CO)[C@@H](O[C@@H]2O[C@H](CO)[C@H](OP(=O)(O)O)[C@H](OP(=O)(O)O)[C@H]2O)[C@H](O)[C@H]1O` [Example 21, Tetrasodium 2-propylpentyl O-β-D-galactopyranosyl-(1→4)-β-D-glucopyranoside 3',4'-diphosphate] the same measures were 64% and 52%.
For `CCCCCCCCCCCCCCC(CCCCCCCCCCCCCC)CO[C@@H]1O[C@H](COS(=O)(=O)O)[C@H](O)[C@H](OS(=O)(=O)O)[C@H]1O[C@@H]1O[C@@H](C)[C@@H](O)[C@@H](O)[C@@H]1O` [Example 29, Disodium 2-tetradecylhexadesyl O-α-L-fuconyranosyl-(1→2)-β-D-galactopyranoside 3,6-disulfate] the same measures were 67% and 65%.
`CC(C)CO[C@@H]1O[C@H](CO)[C@@H](O[C@@H]2O[C@H](COS(=O)(=O)O)[C@H](O)[C@H](OS(=O)(=O)O)[C@H]2O)[C@H](O)[C@H]1O` [Example 9-2, disodium 2-methylpropyl O-β-D-galactopyranosyl-(1→4)-β-D-glucopyranoside 3',6'-disulfate]: the inhibition in vivo at 0.2 mg in assay [1] is 100%; in assay [2], 86%.
